Data taken from PMC7555119, “Characterization of Novel Synthetic Polyphenols: Validation of Antioxidant and Vasculoprotective Activities” (Antioxidants, 2020).
Read-outs that look alike come from different tables or passages of the source.

Tests used:
[1] = Oxygen radical absorbance capacity (ORAC) assay
Description: The ORAC assay was performed following Ou et al., as modified by Garcés-Rimón et al.. All samples and reagents were dissolved in phosphate buffer (75 mM; pH 7.4). […] The fluorescence was recorded at 40 °C every 55 s for 95 min using a fluorimeter (SpectraMax M2; Molecular Devices, California, USA), with excitation and emission wavelengths of 480 and 520 nm, respectively. All samples were tested in triplicate. ORAC values were expressed as μmol of Trolox equivalents (TE)/μmol of pure compound.

[2] = tested on: NADPH oxidase activity in segments of aorta from C57BL6/J mice; experiment: NADPH oxidase activity in aortic segments stimulated ex vivo with IL-1β; settings: IL-1β 10 ng/mL 6 h
Description: Aortic segments from three-month-old C57BL6/J mice were incubated with IL-1β (10 ng/mL, 6 h, Sigma Aldrich) in the presence and in the absence of the different compounds that were added 30 min before stimulation.
The O2 production generated by NADPH oxidase was determined by a chemiluminescence assay. Briefly, endothelial cells or aortic segments were homogenized in phosphate buffer (50 mmol/L KH2PO4, 1 mmol/L EGTA, 150 mmol/L sucrose, pH 7.4). The reaction was started by the addition of a lucigenin (5 μmol/L) and NADPH (100 μmol/L; Sigma-Aldrich) mixture to the protein sample in a final volume of 250 μL. Chemiluminescence was determined every 2.4 s for 3 min in a microtiter plate luminometer (Enspire Perkin Elmer). Basal activity in the absence of NADPH was subtracted from each reading and normalized to protein concentration. Data were normalized vs. control situation.

For `O=C(Nc1ccc(O)cc1)N(c1ccc(O)cc1)c1ccc(O)cc1` [Compound 17, N,N-bis(4-Hydroxyphenyl)-N′-(4′-hydroxyphenyl)urea], the ORAC [1] was 19.4 ± 0.7 µmol of trolox/µmol of pure compound, the “ORAC” value ([1]; TE: Trolox Equivalents) was over 19 TE and the “effect on NADPH oxidase activity induced by IL-1β” value [2] was “significant inhibition of the IL-1β effects”.
